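GI50: concentration for 50% inhibition of growth. TGI marks complete inhibition of growth.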
Columns and labels:
Experiment in all cases: DTP human tumour cell line panel, 384-well format
786-0 renal = test system: 786-0 renal
A498 renal = test system: A498 renal
A549 NSCLC = test system: A549 NSCLC
ACHN renal = test system: ACHN renal
BT-549 breast = test system: BT-549 breast
CAKI-1 renal = test system: CAKI-1 renal
CCRF-CEM leukemia = test system: CCRF-CEM leukemia
COLO 205 colon = test system: COLO 205 colon
DU-145 prostate = test system: DU-145 prostate
EKVX NSCLC = test system: EKVX NSCLC
HCC-2998 colon = test system: HCC-2998 colon
HCT-116 colon = test system: HCT-116 colon
HCT-15 colon = test system: HCT-15 colon
HL-60(TB) leukemia = test system: HL-60(TB) leukemia
HOP-62 NSCLC = test system: HOP-62 NSCLC
HOP-92 NSCLC = test system: HOP-92 NSCLC
HS 578T breast = test system: HS 578T breast
HT29 colon = test system: HT29 colon
IGROV1 ovarian = test system: IGROV1 ovarian
K-562 leukemia = test system: K-562 leukemia
KM12 colon = test system: KM12 colon
LOX IMVI melanoma = test system: LOX IMVI melanoma
M14 melanoma = test system: M14 melanoma
MALME-3M melanoma = test system: MALME-3M melanoma
MCF7 breast = test system: MCF7 breast
MDA-MB-231 breast = test system: MDA-MB-231 breast
MDA-MB-468 breast = test system: MDA-MB-468 breast
MOLT-4 leukemia = test system: MOLT-4 leukemia
NCI-H226 lung = test system: NCI-H226 lung
NCI-H23 lung = test system: NCI-H23 lung
NCI-H322M lung = test system: NCI-H322M lung
NCI-H460 NSCLC = test system: NCI-H460 NSCLC
NCI-H522 lung = test system: NCI-H522 lung
NCI/ADR-RES ovarian = test system: NCI/ADR-RES ovarian
OVCAR-3 ovarian = test system: OVCAR-3 ovarian
OVCAR-4 ovarian = test system: OVCAR-4 ovarian
OVCAR-8 ovarian = test system: OVCAR-8 ovarian
PC-3 prostate = test system: PC-3 prostate
RPMI-8226 leukemia = test system: RPMI-8226 leukemia
RXF 393 renal = test system: RXF 393 renal
SF-268 CNS = test system: SF-268 CNS
SF-295 CNS = test system: SF-295 CNS
SF-539 CNS = test system: SF-539 CNS
SK-MEL-5 melanoma = test system: SK-MEL-5 melanoma
SK-OV-3 ovarian = test system: SK-OV-3 ovarian
SN12C renal = test system: SN12C renal
SNB-19 CNS = test system: SNB-19 CNS
SNB-75 CNS = test system: SNB-75 CNS
SR leukemia = test system: SR leukemia
SW-620 colon = test system: SW-620 colon
T-47D breast = test system: T-47D breast
TK-10 renal = test system: TK-10 renal
U251 glioblastoma = test system: U251 glioblastoma
UACC-257 melanoma = test system: UACC-257 melanoma
UACC-62 melanoma = test system: UACC-62 melanoma
UO-31 renal = test system: UO-31 renal

Work on `Cn1nccc1Nc1nccc(-c2ccn([C@H](CO)c3ccc(Cl)c(F)c3)c(=O)c2)n1` yielded a GI50 ([…]-0 renal) of 19.9 µM, a TGI (786-0 renal) of 58.7 µM and a GI50 (A498 renal) of 18.1 µM. The TGI (A498 renal) was 33.9 µM, the GI50 (A549 NSCLC) was 25.3 µM and the TGI (A549 NSCLC) was > 100 µM. For the same compound, the GI50 (ACHN renal) was 45 µM, the TGI (ACHN renal) was > 100 µM and the GI50 (BT-549 breast) was 15.1 µM. The TGI (BT-549 breast) was 34.6 µM, the GI50 (CAKI-1 renal) was 15.5 µM and the TGI (CAKI-1 renal) was > 100 µM. The GI50 (CCRF-CEM leukemia) was 4.29 µM, the TGI (CCRF-CEM leukemia) was 15 µM and the GI50 (COLO 205 colon) was 102 nM. For the same compound, the TGI (COLO 205 colon) was 12.9 µM, the GI50 (DU-145 prostate) was 18.3 µM and the TGI (DU-145 prostate) was 38.1 µM. The GI50 (EKVX NSCLC) was 76.5 µM, the TGI (EKVX NSCLC) was > 100 µM and the GI50 (HCC-2998 colon) was 565 nM. For the same compound, the TGI (HCC-2998 colon) was 12.1 µM, the GI50 (HCT-116 colon) was 1780 nM and the TGI (HCT-116 colon) was 11.8 µM. For the same compound, the GI50 (HCT-15 colon) was 28.6 µM, the TGI (HCT-15 colon) was > 100 µM and the GI50 (HL-60(TB) leukemia) was 110 nM. For the same compound, the TGI (HL-60(TB) leukemia) was 13.1 µM, the GI50 (HOP-62 NSCLC) was 19.5 µM and the TGI (HOP-62 NSCLC) was 47.2 µM. For the same compound, the GI50 (HOP-92 NSCLC) was 14.3 µM, the TGI (HOP-92 NSCLC) was 28.2 µM and the GI50 (HS 578T breast) was 18.8 µM. The TGI (HS 578T breast) was 34.1 µM, the GI50 (HT29 colon) was 443 nM and the TGI (HT29 colon) was 20.7 µM. For the same compound, the GI50 (IGROV1 ovarian) was 14 µM, the TGI (IGROV1 ovarian) was 39.5 µM and the GI50 (K-562 leukemia) was 6.93 µM. For the same compound, the TGI (K-562 leukemia) was 21.7 µM, the GI50 (KM12 colon) was 18.6 µM and the TGI (KM12 colon) was > 100 µM. For the same compound, the GI50 (LOX IMVI melanoma) was 1080 nM, the TGI (LOX IMVI melanoma) was 11.7 µM and the GI50 (M14 melanoma) was 79.4 nM. The TGI (M14 melanoma) was 10.3 µM, the GI50 (MALME-3M melanoma) was 28.9 nM and the TGI (MALME-3M melanoma) was 104 nM. For the same compound, the GI50 (MCF7 breast) was 37.4 µM, the TGI (MCF7 breast) was > 100 µM and the GI50 (MDA-MB-231 breast) was 21.3 µM. The TGI (MDA-MB-231 breast) was > 100 µM, the GI50 (MDA-MB-468 breast) was 23.7 µM and the TGI (MDA-MB-468 breast) was 48.5 µM. It also gave a GI50 (MOLT-4 leukemia) of 11.6 µM, a TGI (MOLT-4 leukemia) of 24 µM and a GI50 (NCI-H226 lung) of 26.4 µM. It also gave a TGI (NCI-H226 lung) of 64.8 µM, a GI50 (NCI-H23 lung) of 899 nM and a TGI (NCI-H23 lung) of 24 µM. For the same compound, the GI50 (NCI-H322M lung) was 15.6 µM, the TGI (NCI-H322M lung) was > 100 µM and the GI50 (NCI-H460 NSCLC) was 20.4 µM. For the same compound, the TGI (NCI-H460 NSCLC) was 45.1 µM, the GI50 (NCI-H522 lung) was 2660 nM and the TGI (NCI-H522 lung) was 9.45 µM. The GI50 (NCI/ADR-RES ovarian) was 78.1 µM, the TGI (NCI/ADR-RES ovarian) was > 100 µM and the GI50 (OVCAR-3 ovarian) was 18.5 µM. The TGI (OVCAR-3 ovarian) was 54.3 µM, the GI50 (OVCAR-4 ovarian) was > 100 µM and the TGI (OVCAR-4 ovarian) was > 100 µM. The GI50 (OVCAR-8 ovarian) was 3.44 µM, the TGI (OVCAR-8 ovarian) was 10.7 µM and the GI50 (PC-3 prostate) was 29.8 µM. The TGI (PC-3 prostate) was 84.3 µM, the GI50 (RPMI-8226 leukemia) was 16.5 µM and the TGI (RPMI-8226 leukemia) was 31 µM. It also gave a GI50 (RXF 393 renal) of 21.2 µM, a TGI (RXF 393 renal) of 49 µM and a GI50 (SF-268 CNS) of 38.1 µM. For the same compound, the TGI (SF-268 CNS) was > 100 µM, the GI50 (SF-295 CNS) was 54 µM and the TGI (SF-295 CNS) was > 100 µM. For the same compound, the GI50 (SF-539 CNS) was 1760 nM, the TGI (SF-539 CNS) was 3.55 µM and the GI50 (SK-MEL-5 melanoma) was 409 nM. For the same compound, the TGI (SK-MEL-5 melanoma) was 22.1 µM, the GI50 (SK-OV-3 ovarian) was 15.9 µM and the TGI (SK-OV-3 ovarian) was 33.3 µM. It also gave a GI50 (SN12C renal) of 1670 nM, a TGI (SN12C renal) of 4.67 µM and a GI50 (SNB-19 CNS) of 16.6 µM. The TGI (SNB-19 CNS) was 52 µM, the GI50 (SNB-75 CNS) was 22.6 µM and the TGI (SNB-75 CNS) was 45.3 µM. The GI50 (SR leukemia) was 47.8 µM, the TGI (SR leukemia) was 85.2 µM and the GI50 (SW-620 colon) was 1650 nM. The TGI (SW-620 colon) was 14.6 µM, the GI50 (T-47D breast) was 11.1 µM and the TGI (T-47D breast) was 54.5 µM. For the same compound, the GI50 (TK-10 renal) was 21.2 µM, the TGI (TK-10 renal) was 51.7 µM and the GI50 (U251 glioblastoma) was 7.42 µM. The TGI (U251 glioblastoma) was 20.9 µM, the GI50 (UACC-257 melanoma) was 209 nM and the TGI (UACC-257 melanoma) was > 100 µM. For the same compound, the GI50 (UACC-62 melanoma) was 67.8 nM, the TGI (UACC-62 melanoma) was 14.8 µM and the GI50 (UO-31 renal) was 30 µM. For the same compound, the TGI (UO-31 renal) was > 100 µM.

From PubChem BioAssay (NCI)
